Data set [1] addresses T1, human μ opioid receptor (Homo sapiens, UniProt P35372).
T1 construct: host or cells: HEK293 cells
The experiment in a line: radioligand binding, human opioid μ receptor ([3H]DAMGO, HEK293 cells).

Data set [2] concerns the target T2, human sigma 2 receptor (Homo sapiens, UniProt Q5BJF2).
T2 construct: host or cells: Jurkat cells
The data set can be described thus: radioligand binding, human sigma 2 receptor ([3H]DTG, Jurkat cells). Conditions: [3H]DTG with unlabeled (+)-pentazocine.

Data set [3] has as its target human histamine H4 receptor. Conditions: read-out: Ki, human histamine H4 receptor; cited from earlier work.
Data set [4] deals with CQ-induced pruritus. The data set can be described thus: chloroquine (CQ)-induced pruritus. Conditions: mice, 2.5, 5, 10 and 15 mg/kg i.p.; 30 min observation. The class given is in vivo, mice. How it is done:
The area (around 2 cm^2) of the nape of mice was shaved at least 2 days prior to experiments. On the day of the experiment, each mouse was individually placed in plastic chambers (15 × 15 × 30 cm). After the 30 min period of habituation, the mice received an intradermal (i.d.) injection of histamine dihydrochloride (10 µmol/site), chloroquine (CQ, 200 µg/site), or SLIGRL-NH2 (40 nmol/site), which were dissolved in physiological saline and administrated at the constant volume of 20 μL. Immediately following the injection, scratching (series of movements considered as a single scratching bout usually consisted of three single scratches) of the injected site by the hind paw was counted for 60 min, 30 min, or 45 min after histamine, CQ, and SLIGRL-NH2 injection, respectively.

Data set [5] concerns the target T3, human sigma 1 receptor (Homo sapiens, UniProt Q99720).
T3 construct: [^3H](+)pentazocine (agonist) in Jurkat cells; host or cells: Jurkat cells
The data set can be described thus: radioligand binding, human sigma 1 receptor ([3H](+)pentazocine, Jurkat cells).

Data set [6] addresses T4, human kappa opioid receptor (Homo sapiens, UniProt P41145).
T4 construct: host or cells: RBL cells
The experiment in a line: radioligand binding, human opioid kappa receptor ([3H]U69593, RBL cells).

For data set [7] the following is noted: up to 10 μM; cited from earlier work.
For data set [8], the system named is acute thermal pain (hot plate). The data set can be described thus: hot plate test. It is filed as in vivo. The note with it: mice, 30 mg/kg i.p., 30 min before test; saline control 17.93 ± 1.04 s. How it is done:
The hot plate test was performed according to classical method described in Eddy and Leimbach with modifications. At the beginning, animals were tested for their baseline pain sensitivity threshold. For further studies, only mice that fulfilled the criterium of pain response ≤30 s were used. […] The latency to pain response (licking the hind paw or jumping) was measured. The cut-off time was set to up to 60 s to avoid tissue damage, and mice not responding within 60 s were removed from the apparatus and assigned the score of 60 s.

This is an account of results in PMC10609854 (Pharmaceuticals, 2023).

T3 sequence (Q99720 whole entry): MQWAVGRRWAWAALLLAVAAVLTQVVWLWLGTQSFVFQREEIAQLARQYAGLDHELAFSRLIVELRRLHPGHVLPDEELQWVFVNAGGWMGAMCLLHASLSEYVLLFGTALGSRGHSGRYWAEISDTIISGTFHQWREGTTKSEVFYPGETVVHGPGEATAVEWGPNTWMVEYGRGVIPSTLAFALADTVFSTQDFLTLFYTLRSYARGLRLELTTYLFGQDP
T1 sequence (P35372 whole entry): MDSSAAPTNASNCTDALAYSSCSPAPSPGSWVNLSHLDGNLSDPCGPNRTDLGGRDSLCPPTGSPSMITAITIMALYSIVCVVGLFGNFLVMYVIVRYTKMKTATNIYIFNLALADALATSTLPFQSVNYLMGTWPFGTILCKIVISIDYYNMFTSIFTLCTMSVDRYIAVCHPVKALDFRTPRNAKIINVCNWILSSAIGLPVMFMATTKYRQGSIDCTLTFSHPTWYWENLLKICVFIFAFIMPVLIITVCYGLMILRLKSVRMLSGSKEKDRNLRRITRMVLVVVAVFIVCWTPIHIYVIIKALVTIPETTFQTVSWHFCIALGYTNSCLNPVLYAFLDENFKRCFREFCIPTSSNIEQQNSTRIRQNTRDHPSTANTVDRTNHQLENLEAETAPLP
T4 sequence (P41145 whole entry): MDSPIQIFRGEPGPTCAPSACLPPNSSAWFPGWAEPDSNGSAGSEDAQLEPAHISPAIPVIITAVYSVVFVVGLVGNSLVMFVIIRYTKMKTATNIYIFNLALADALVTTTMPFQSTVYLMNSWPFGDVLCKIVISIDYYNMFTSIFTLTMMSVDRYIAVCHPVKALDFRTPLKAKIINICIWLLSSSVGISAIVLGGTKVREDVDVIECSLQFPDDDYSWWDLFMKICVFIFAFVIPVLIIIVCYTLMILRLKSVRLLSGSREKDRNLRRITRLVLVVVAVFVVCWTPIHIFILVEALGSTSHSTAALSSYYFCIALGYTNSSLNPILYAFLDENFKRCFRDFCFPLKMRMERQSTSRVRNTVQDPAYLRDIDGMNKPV
T2 sequence (Q5BJF2 whole entry): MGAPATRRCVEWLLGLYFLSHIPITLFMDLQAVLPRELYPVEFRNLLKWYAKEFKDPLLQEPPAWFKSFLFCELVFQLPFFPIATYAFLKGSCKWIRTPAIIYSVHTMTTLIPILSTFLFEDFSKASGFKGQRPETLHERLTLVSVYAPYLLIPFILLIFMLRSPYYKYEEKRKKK

As a reminder, the inhibition is the change of the read-out against control, counted positive when it falls. Broadly, the Ki is the dissociation constant of the complex between target and ligand, obtained from inhibition or displacement. One may read the IC50 as the point on the concentration scale where inhibition reaches its midpoint. Take `O=C(O)C(=O)O.c1ccc(-c2ccc(OCCCCCN3CCCCCC3)cc2)cc1` [Compound E153, 1-(5-(4-Phenylphenoxy)pentyl)azepane hydrogen oxalate]: the inhibition at 1 µM in data set [1] came to 11%; in data set [2] it was 102%; in data set [5] (at 1 μM), 95%; in data set [6], 52%. Besides, the figures for the Ki in data set [3] and in data set [5] were 22000 nM and 1.2 nM, respectively. Besides, in data set [4], the “number of scratch bouts, CQ-induced pruritus” value was “significantly decreased”. Also, the IC50 in data set [5] worked out at 2.4 nM. Moreover, in data set [7], the “mutagenicity in the AMES test” value is on record as “non-mutagenic”. The “latency time of the pain reaction, hot plate test” value in data set [8] is 37.60 ± 6.13 s.
